Tested on: LG0703-F948-PDC complex spheroid viability
Experiment: Anticancer human tumor LG0703-F948-PDC patient-derived lung adenocarcinoma cell line growth inhibition
Conditions: for IC50: curve of first compound; for viability, T/C: stronger effect = lower value; active means viability on the fitted dose curve at most 10% of control; inactive means the rest
Excerpt: Multicellular complex tumor spheroid response to LSD1 Inhibitor Iadademstat in combination with a variety of drugs and investigational agents in selected tumor cell lines
The current study was undertaken to assess response to LSD1 inhibitors in combination with standard-of-care drugs and investigational agents in solid tumor complex spheroid models as well as in the K-562 leukemia. Complex spheroids include a stromal component modeled by human endothelial cells (HUVEC) and fibroblasts modeled by human mesenchymal stem cells (MSCs). The concentration ranges selected for each drug and investigational agent were based upon clinically achievable concentrations if the clinical Cmax of the agent was known.
Compounds. The drugs and investigational agents used in this study are listed on Table 1. All of the agents used, including staurosporine (NSC755774) and gemcitabine (NSC613327), were obtained from the Developmental Therapeutics Program, NCI. FDA-approved anticancer drugs are available from the NCI at http://dtp.nci.nih.gov/branches/dscb/oncology_drugset_explanation.html. Drugs and investigational agents were >95% pure by proton nuclear magnetic resonance (NMR) and liquid chromatography/mass spectrometry (LC/MS). Stock solutions were prepared at 400x in DMSO, stored at -70 degrees C, and diluted in fresh medium prior to their use. The final concentration of DMSO in cell culture wells never exceeded 0.25% (v/v). The FDA-approved anticancer drug set is available from the Developmental Therapeutics Program at https://dtp.cancer.gov/organization/dscb/obtaining/available_plates.htm. All drugs and investigational agents were tested over a range starting from a high concentration at or near the clinical Cmax and decreasing in half-log increments. If the clinical Cmax for an agent had not been determined, the highest concentration tested was 10 microM.
Cell Lines. The patient-derived cancer cell (PDC) lines: 292921-168-R-J2-PDC, K24384-001-R-PDC, and 521955-158-R2-J5-PDC pancreatic carcinomas, 556581-035-R-J1 ovarian carcinoma, 324938-238-R-J1-PDC, 855422-203-R-J1-PDC and 883617-216-R-J1-PDC urothelial bladder carcinomas, 743489-274-T-PDC renal cell carcinoma, 138582-R-J1 Merkel cell tumor, K60290-347-R-J1 and K57222-313-R-J1-PDC glioblastomas, 653999-131-R-J2-PDC, LG0703-F948-PDC, and 349418-098-R-PDC non-small cell lung carcinomas, 885512-296-R-J2-PDC, 171881-019-R-J1-PDC breast carcinomas and 186277-243-T-J2-PDC and 233499-124-R-J2-PDC colon carcinomas were obtained from the NCI Patient-Derived Models Repository (PDMR, https://pdmr.cancer.gov). The established cell lines NCI/ADR-RES (RRID:CVCL_14520 and OVCAR-5 (RRID:CVCL_1628) ovarian carcinomas, 786-O (RRID:CVCL_1051) and A498 (RRID:CVCL_A498) renal cell carcinoma, NCI-H211 (ATCC, cat. CRL-5824; RRID:CVCL_1529), NCI-H196 (ATCC, cat. CRL-5823, RRID:CVCL_1509), SW 1271 (ATCC, cat. CRL-2177, RRID:CVCL_1716) and NCI-H1876 (ATCC, cat. CRL-5902, RRID:CVCL_1503) small cell lung carcinomas, MDA-MB-231 (RRID:CVCL_0062) and MDA-MB-468 (RRID:CVCL_0419)breast carcinomas (10-12). Pooled donor human umbilical vein endothelial cells (HUVEC, Lonza, cat. CC-2519) and human mesenchymal stem cells (hMSC, Lonza, cat. PT-2501) were purchased from Lonza (Walkersville, MD).
Cell Culture. All cells were maintained in an incubator at 37 degrees C and 5% CO2 with 95% humidity. The PDC lines were cultured according to standard operating procedures established by the NCI PDMR (https://pdmr.cancer.gov). Briefly all PDCs were thawed and cultured in Matrigel-coated flasks prepared with a working solution of 1X Ham's F-12 nutrient mix, without supplementation (Invitrogen, Waltham, MA, cat. 11765054), 100 U/mL penicillin-streptomycin (Invitrogen, cat. 15140122), and 2.5% Matrigel (Corning Inc., Corning, NY, cat. 354248) for the first three passages. […]

[1] = second compound 0.1 µM, first compound 0.00316 µM
[2] = second compound 0.1 µM, first compound 0.01 µM
[3] = second compound 0.1 µM, first compound 0.0316 µM
[4] = second compound 0.1 µM, first compound 0.1 µM
[5] = second compound 0.316 µM, first compound 0.00316 µM
[6] = second compound 0.316 µM, first compound 0.01 µM
[7] = second compound 0.316 µM, first compound 0.0316 µM
[8] = second compound 0.316 µM, first compound 0.1 µM
[9] = second compound 1 µM, first compound 0.00316 µM
[10] = second compound 1 µM, first compound 0.01 µM
[11] = second compound 1 µM, first compound 0.0316 µM
[12] = second compound 1 µM, first compound 0.1 µM
[13] = second compound 3.16 µM, first compound 0.00316 µM
[14] = second compound 3.16 µM, first compound 0.01 µM
[15] = second compound 3.16 µM, first compound 0.0316 µM
[16] = second compound 3.16 µM, first compound 0.1 µM
[17] = second compound 10 µM, first compound 0.00316 µM
[18] = second compound 10 µM, first compound 0.01 µM
[19] = second compound 10 µM, first compound 0.0316 µM
[20] = second compound 10 µM, first compound 0.1 µM
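Further: spheroids exposed to agents for seven days before readout.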
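Wherever viability, T/C is given: 100% = DMSO vehicle control wells as normalization base.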

CC[C@@]1(O)C(=O)OCc2c1cc1n(c2=O)Cc2cc3c(CN(C)C)c(O)ccc3nc2-1 + NC1CC1c1ccc(-c2cccc(O)c2)cc1
> 100 nM: IC50 (second compound 0.1 µM) | IC50 (second compound 0.316 µM) | IC50 (second compound 1 µM) | IC50 (second compound 3.16 µM) | IC50 (second compound 10 µM)
inactive: viability, T/C (second compound 0.1 µM, first compound 0.000316 µM) 117% | viability, T/C (second compound 0.1 µM, first compound 0.001 µM) 116% | viability, T/C [1] 106% | viability, T/C [2] 84.8% | viability, T/C [3] 70% | viability, T/C [4] 49.7% | viability, T/C (second compound 0.316 µM, first compound 0.000316 µM) 118% | viability, T/C (second compound 0.316 µM, first compound 0.001 µM) 107% | viability, T/C [5] 106% | viability, T/C [6] 82.8% | viability, T/C [7] 64.5% | viability, T/C [8] 55.3% | viability, T/C (second compound 1 µM, first compound 0.000316 µM) 114% | viability, T/C (second compound 1 µM, first compound 0.001 µM) 109% | viability, T/C [9] 97.8% | viability, T/C [10] 95.2% | viability, T/C [11] 67.1% | viability, T/C [12] 54.3% | viability, T/C (second compound 3.16 µM, first compound 0.000316 µM) 108% | viability, T/C (second compound 3.16 µM, first compound 0.001 µM) 97.2% | viability, T/C [13] 100% | viability, T/C [14] 89.2% | viability, T/C [15] 81.9% | viability, T/C [16] 71.5% | viability, T/C (second compound 10 µM, first compound 0.000316 µM) 103% | viability, T/C (second compound 10 µM, first compound 0.001 µM) 115% | viability, T/C [17] 107% | viability, T/C [18] 76.5% | viability, T/C [19] 78.8% | viability, T/C [20] 62.1%

COc1cc(C2c3cc4c(cc3C(OC3OC5COC(C)OC5C(O)C3O)C3COC(=O)C23)OCO4)cc(OC)c1O (stereo not given) + NC1CC1c1ccc(-c2cccc(O)c2)cc1
inactive: viability, T/C (second compound 0.1 µM, first compound 0.00949 µM) 117% | viability, T/C (second compound 0.1 µM, first compound 0.03 µM) 126% | viability, T/C (second compound 0.1 µM, first compound 0.0949 µM) 101% | viability, T/C (second compound 0.1 µM, first compound 0.3 µM) 98.5% | viability, T/C (second compound 0.1 µM, first compound 0.949 µM) 89.5% | viability, T/C (second compound 0.1 µM, first compound 3 µM) 66.9% | viability, T/C (second compound 0.316 µM, first compound 0.00949 µM) 117% | viability, T/C (second compound 0.316 µM, first compound 0.03 µM) 111% | viability, T/C (second compound 0.316 µM, first compound 0.0949 µM) 106% | viability, T/C (second compound 0.316 µM, first compound 0.3 µM) 88.4% | viability, T/C (second compound 0.316 µM, first compound 0.949 µM) 92.2% | viability, T/C (second compound 0.316 µM, first compound 3 µM) 75.4% | viability, T/C (second compound 1 µM, first compound 0.00949 µM) 104% | viability, T/C (second compound 1 µM, first compound 0.03 µM) 115% | viability, T/C (second compound 1 µM, first compound 0.0949 µM) 105% | viability, T/C (second compound 1 µM, first compound 0.3 µM) 95.9% | viability, T/C (second compound 1 µM, first compound 0.949 µM) 105% | viability, T/C (second compound 1 µM, first compound 3 µM) 77.8% | viability, T/C (second compound 3.16 µM, first compound 0.00949 µM) 102% | viability, T/C (second compound 3.16 µM, first compound 0.03 µM) 121% | viability, T/C (second compound 3.16 µM, first compound 0.0949 µM) 117% | viability, T/C (second compound 3.16 µM, first compound 0.3 µM) 100% | viability, T/C (second compound 3.16 µM, first compound 0.949 µM) 88.1% | viability, T/C (second compound 3.16 µM, first compound 3 µM) 86.2% | viability, T/C (second compound 10 µM, first compound 0.00949 µM) 104% | viability, T/C (second compound 10 µM, first compound 0.03 µM) 116% | viability, T/C (second compound 10 µM, first compound 0.0949 µM) 99.9% | viability, T/C (second compound 10 µM, first compound 0.3 µM) 103% | viability, T/C (second compound 10 µM, first compound 0.949 µM) 81.6% | viability, T/C (second compound 10 µM, first compound 3 µM) 66.8%
> 3000 nM: IC50 (second compound 0.1 µM) | IC50 (second compound 0.316 µM) | IC50 (second compound 1 µM) | IC50 (second compound 3.16 µM) | IC50 (second compound 10 µM)

Nc1ncn(C2CC(O)C(CO)O2)c(=O)n1 (stereo not given) + NC1CC1c1ccc(-c2cccc(O)c2)cc1
> 1000 nM: IC50 (second compound 0.1 µM) | IC50 (second compound 0.316 µM) | IC50 (second compound 1 µM) | IC50 (second compound 3.16 µM) | IC50 (second compound 10 µM)
inactive: viability, T/C [1] 106% | viability, T/C [2] 111% | viability, T/C [3] 99.3% | viability, T/C [4] 116% | viability, T/C (second compound 0.1 µM, first compound 0.316 µM) 85.4% | viability, T/C (second compound 0.1 µM, first compound 1 µM) 88.9% | viability, T/C [5] 116% | viability, T/C [6] 117% | viability, T/C [7] 106% | viability, T/C [8] 95.2% | viability, T/C (second compound 0.316 µM, first compound 0.316 µM) 95.7% | viability, T/C (second compound 0.316 µM, first compound 1 µM) 94.3% | viability, T/C [9] 106% | viability, T/C [10] 103% | viability, T/C [11] 104% | viability, T/C [12] 95.7% | viability, T/C (second compound 1 µM, first compound 0.316 µM) 96.3% | viability, T/C (second compound 1 µM, first compound 1 µM) 94.6% | viability, T/C [13] 108% | viability, T/C [14] 112% | viability, T/C [15] 99.8% | viability, T/C [16] 89.7% | viability, T/C (second compound 3.16 µM, first compound 0.316 µM) 105% | viability, T/C (second compound 3.16 µM, first compound 1 µM) 105% | viability, T/C [17] 103% | viability, T/C [18] 104% | viability, T/C [19] 107% | viability, T/C [20] 106% | viability, T/C (second compound 10 µM, first compound 0.316 µM) 98.4% | viability, T/C (second compound 10 µM, first compound 1 µM) 95.3%

Reference: PubChem BioAssay AID1918952 (Molecular Pharmacology Branch, DTP, NCI, 2023)
